From ChEMBL document CHEMBL6120936, “Autophagy modulation in cancer therapy: Challenges coexist with opportunities” (Eur J Med Chem, 2024) come the findings set out here.

Assay [1] in a line: Agonist activity at AMPK (unknown origin). The arrangement: species or system Homo sapiens.
In assay [2] the target is Mitogen-activated protein kinase 3 (Homo sapiens, UniProt P27361). Put plainly: Inhibition of ERK1 (unknown origin).
Assay [3] addresses T1, Serine/threonine-protein kinase ULK1 (Homo sapiens, UniProt O75385).
T1 sequence (O75385 whole entry): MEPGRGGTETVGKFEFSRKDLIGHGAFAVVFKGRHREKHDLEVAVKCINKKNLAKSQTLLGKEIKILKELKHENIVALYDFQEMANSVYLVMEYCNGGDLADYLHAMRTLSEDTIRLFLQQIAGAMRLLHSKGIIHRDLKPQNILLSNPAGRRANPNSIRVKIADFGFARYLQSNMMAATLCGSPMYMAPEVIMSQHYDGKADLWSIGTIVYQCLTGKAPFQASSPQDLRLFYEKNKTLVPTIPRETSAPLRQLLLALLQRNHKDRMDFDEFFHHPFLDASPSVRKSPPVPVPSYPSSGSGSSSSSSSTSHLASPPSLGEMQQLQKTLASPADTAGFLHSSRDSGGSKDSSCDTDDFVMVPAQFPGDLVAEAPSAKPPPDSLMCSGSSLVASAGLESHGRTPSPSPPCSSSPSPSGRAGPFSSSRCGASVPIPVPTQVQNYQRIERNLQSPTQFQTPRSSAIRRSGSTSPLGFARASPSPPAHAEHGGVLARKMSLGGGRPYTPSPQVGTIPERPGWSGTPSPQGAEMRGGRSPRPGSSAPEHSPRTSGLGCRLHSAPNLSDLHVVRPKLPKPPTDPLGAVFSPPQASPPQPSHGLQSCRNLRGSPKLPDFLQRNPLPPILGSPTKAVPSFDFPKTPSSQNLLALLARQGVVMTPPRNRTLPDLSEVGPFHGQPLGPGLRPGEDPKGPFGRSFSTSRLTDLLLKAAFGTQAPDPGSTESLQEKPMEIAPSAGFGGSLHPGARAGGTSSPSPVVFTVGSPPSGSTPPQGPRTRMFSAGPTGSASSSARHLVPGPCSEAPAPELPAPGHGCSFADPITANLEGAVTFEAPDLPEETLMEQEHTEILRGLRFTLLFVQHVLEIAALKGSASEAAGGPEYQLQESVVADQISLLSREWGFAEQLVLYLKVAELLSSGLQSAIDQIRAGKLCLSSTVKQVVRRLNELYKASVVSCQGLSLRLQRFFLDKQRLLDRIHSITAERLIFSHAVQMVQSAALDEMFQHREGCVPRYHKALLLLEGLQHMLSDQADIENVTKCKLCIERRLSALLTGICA
Put plainly: Agonist activity at ULK1 (unknown origin).

A short description of assay [4]: Binding affinity to AMPK (unknown origin) assessed as inhibition constant. The arrangement: species or system Homo sapiens.
The target in assay [5] is T2, Serine/threonine-protein kinase ULK2 (Homo sapiens, UniProt Q8IYT8).
T2 sequence (Q8IYT8 whole entry): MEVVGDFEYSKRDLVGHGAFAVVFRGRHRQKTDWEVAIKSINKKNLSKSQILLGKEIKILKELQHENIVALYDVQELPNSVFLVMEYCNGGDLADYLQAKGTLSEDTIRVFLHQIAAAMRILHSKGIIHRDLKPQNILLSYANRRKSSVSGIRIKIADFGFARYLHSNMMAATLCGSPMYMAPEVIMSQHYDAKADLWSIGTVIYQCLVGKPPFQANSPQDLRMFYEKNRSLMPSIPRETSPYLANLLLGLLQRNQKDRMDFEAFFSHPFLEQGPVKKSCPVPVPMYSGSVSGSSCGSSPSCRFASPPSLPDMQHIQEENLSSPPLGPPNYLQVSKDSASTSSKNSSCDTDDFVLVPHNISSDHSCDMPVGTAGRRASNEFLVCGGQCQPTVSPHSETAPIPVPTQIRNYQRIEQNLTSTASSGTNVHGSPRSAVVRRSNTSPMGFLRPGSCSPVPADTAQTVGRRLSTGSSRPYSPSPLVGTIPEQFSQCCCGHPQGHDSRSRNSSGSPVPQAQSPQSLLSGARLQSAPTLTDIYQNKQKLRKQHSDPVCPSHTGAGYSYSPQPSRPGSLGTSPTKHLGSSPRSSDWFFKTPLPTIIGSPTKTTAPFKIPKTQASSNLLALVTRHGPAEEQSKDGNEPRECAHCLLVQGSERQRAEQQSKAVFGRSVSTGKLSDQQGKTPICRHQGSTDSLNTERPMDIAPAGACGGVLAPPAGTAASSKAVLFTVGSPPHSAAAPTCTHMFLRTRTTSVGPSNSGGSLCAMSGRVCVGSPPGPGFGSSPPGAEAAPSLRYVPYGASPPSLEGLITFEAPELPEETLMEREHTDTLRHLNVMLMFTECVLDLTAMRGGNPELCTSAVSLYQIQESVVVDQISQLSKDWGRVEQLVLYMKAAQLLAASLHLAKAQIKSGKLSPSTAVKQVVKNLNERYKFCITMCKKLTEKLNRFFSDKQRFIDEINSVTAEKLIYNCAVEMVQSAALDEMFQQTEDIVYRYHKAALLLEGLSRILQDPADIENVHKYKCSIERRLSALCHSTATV
Put plainly: Inhibition of ULK2 (unknown origin).

The target in assay [6] is Phosphatidylinositol 4,5-bisphosphate 3-kinase catalytic subunit alpha isoform (Homo sapiens, UniProt P42336). Description: Inhibition of PI3K-p110alpha (unknown origin) extracted from baculovirus-infected Sf9 cells incubated for 1 hr by microbeta counter analysis.
Assay [7] has as its target T3, Phosphatidylinositol 4,5-bisphosphate 3-kinase catalytic subunit delta isoform (Homo sapiens, UniProt O00329).
T3 sequence (O00329 whole entry): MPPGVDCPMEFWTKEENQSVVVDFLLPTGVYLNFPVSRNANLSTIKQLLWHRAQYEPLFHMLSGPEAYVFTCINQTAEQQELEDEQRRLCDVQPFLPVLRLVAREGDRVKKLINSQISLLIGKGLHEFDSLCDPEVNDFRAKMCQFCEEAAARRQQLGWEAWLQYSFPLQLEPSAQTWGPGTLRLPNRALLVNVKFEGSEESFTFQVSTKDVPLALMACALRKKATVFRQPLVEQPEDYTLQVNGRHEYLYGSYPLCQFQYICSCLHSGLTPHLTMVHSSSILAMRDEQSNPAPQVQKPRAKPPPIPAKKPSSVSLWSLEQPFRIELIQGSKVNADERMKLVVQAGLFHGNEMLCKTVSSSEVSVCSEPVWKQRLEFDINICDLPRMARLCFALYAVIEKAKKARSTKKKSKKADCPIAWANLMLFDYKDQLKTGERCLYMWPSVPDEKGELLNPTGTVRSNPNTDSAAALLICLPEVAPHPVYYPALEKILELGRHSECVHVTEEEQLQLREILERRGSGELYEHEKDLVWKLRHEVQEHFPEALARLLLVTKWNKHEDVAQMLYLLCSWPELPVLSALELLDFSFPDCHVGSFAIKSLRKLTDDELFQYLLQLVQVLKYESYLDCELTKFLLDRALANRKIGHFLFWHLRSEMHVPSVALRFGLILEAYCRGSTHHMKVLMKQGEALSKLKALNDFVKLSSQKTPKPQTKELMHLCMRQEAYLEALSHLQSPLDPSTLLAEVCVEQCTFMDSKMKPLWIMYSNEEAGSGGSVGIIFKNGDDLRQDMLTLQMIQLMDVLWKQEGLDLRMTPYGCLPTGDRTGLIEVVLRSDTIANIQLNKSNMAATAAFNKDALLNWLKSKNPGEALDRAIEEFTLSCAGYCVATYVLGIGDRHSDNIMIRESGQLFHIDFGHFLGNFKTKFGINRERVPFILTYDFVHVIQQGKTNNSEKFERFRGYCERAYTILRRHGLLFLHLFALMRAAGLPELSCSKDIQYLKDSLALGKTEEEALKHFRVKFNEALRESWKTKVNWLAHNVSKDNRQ
Put plainly: Inhibition of PI3Kdelta (unknown origin).

Assay [8] addresses Phosphatidylinositol 4,5-bisphosphate 3-kinase catalytic subunit gamma isoform (Homo sapiens, UniProt P48736). Description: Inhibition of PI3K p120gamma (unknown origin).

Sequence of Phosphatidylinositol 4,5-bisphosphate 3-kinase catalytic subunit gamma isoform (P48736 whole entry, canonical isoform): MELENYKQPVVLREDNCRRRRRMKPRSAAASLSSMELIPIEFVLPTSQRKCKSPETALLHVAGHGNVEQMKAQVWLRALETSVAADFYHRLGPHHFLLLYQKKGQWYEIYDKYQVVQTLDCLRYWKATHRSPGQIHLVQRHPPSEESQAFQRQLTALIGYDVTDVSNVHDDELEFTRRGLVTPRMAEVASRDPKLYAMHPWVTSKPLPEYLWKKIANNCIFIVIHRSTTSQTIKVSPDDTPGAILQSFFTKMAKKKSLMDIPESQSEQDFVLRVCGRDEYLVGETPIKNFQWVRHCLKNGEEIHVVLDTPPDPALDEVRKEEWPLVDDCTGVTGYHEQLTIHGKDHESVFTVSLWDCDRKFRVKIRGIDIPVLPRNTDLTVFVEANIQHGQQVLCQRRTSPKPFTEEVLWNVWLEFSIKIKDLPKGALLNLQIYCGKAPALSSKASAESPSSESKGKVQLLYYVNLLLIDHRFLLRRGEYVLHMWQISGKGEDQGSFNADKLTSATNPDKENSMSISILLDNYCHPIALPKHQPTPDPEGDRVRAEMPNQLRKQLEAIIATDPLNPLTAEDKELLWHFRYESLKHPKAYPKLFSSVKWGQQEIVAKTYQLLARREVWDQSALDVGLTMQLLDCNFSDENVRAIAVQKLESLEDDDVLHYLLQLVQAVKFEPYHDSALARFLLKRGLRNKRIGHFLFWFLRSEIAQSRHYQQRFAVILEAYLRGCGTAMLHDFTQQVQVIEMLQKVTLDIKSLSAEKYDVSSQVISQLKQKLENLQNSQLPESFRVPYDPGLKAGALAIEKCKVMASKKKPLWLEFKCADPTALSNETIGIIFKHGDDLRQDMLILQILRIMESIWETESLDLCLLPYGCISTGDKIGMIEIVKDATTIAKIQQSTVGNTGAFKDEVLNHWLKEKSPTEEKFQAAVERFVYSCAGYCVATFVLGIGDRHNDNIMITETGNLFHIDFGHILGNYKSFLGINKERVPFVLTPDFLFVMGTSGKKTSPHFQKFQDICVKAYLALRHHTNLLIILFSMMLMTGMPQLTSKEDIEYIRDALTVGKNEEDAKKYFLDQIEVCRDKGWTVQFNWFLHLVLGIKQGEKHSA
Sequence of Phosphatidylinositol 4,5-bisphosphate 3-kinase catalytic subunit alpha isoform (P42336 whole entry, canonical isoform): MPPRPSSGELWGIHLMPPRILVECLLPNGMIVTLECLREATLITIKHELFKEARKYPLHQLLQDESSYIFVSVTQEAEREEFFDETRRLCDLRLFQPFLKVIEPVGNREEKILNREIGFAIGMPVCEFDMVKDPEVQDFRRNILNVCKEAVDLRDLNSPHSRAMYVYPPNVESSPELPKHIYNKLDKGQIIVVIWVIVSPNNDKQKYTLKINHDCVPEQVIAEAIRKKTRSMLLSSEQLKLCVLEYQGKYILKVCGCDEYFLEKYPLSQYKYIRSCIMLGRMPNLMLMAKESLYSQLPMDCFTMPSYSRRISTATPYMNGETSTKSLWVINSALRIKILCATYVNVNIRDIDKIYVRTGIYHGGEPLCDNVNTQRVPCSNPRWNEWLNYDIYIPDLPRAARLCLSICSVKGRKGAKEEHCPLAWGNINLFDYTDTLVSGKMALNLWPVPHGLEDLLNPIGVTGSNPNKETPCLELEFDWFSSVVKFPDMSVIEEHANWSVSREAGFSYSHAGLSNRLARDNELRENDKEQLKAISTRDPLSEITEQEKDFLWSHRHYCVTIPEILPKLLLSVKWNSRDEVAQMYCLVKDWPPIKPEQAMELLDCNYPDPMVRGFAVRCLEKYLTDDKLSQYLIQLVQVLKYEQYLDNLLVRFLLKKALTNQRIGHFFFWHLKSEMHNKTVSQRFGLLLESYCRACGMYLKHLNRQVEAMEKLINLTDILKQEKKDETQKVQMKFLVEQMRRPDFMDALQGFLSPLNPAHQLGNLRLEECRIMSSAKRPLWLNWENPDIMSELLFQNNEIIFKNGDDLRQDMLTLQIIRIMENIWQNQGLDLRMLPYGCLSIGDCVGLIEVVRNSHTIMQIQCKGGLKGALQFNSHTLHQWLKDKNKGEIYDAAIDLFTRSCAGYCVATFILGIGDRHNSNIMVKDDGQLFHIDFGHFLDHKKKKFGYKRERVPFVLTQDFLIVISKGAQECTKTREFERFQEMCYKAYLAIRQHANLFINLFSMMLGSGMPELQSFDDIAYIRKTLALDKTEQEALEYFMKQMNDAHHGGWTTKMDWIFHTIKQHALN
Sequence of Mitogen-activated protein kinase 3 (P27361 whole entry): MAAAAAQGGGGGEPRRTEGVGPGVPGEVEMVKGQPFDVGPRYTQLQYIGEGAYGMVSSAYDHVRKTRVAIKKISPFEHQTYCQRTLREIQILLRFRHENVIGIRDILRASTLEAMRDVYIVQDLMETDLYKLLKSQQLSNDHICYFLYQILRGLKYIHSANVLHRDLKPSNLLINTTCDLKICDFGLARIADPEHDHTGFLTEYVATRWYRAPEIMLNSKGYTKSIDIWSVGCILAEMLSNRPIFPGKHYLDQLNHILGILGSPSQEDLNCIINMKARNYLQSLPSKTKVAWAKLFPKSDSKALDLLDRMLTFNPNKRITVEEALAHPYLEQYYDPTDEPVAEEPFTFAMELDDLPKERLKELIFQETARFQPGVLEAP

As for `N#Cc1c(O)c2c(-c3ccccc3)csc2[nH]c1=O`, it took 38000 nM to reach a half-maximal effect in assay [1] (EC50). Take `N#Cc1c(O)c2c(-c3ccc(-c4ccccc4O)cc3)csc2[nH]c1=O`: it took 800 nM to reach a half-maximal effect in assay [1] (EC50). As to `COc1ccc([C@H]2OC[C@H]3[C@@H]2CO[C@@H]3c2cc(OC)c(OC)c(OC)c2)cc1OC`, in assay [2], the IC50 (as a rule, the concentration that gives 50% inhibition) came out at 87 nM. For the compound `O=C(Nc1ccc(F)cc1F)[C@H](NC(=S)Nc1cc(C(F)(F)F)cc(C(F)(F)F)c1)c1ccccc1`, in assay [3], the half-maximal effective concentration (EC50) (as a rule, the concentration at which the effect is half-maximal) came to 24.1 nM.

As to `c1cc(-c2cnn3cc(-c4ccc(OCCN5CCCCC5)cc4)cnc23)ccn1` [DORSOMORPHIN], the Ki (in general, a dissociation constant, usually derived from enzyme kinetics or from competition with a known ligand) in assay [4] was 109 nM. In assay [5], `CCc1cc(N2CCN(C)CC2)ccc1Nc1ncc(C(F)(F)F)c(NCCCN2CCOCCC2=O)n1` [INLEXISERTIB] had a concentration for half-maximal inhibition (IC50) of 9 nM. Consider `CC(C)NC[C@@H](C(=O)N1CCN(c2ncnc3c2[C@H](C)C[C@H]3O)CC1)c1ccc(Cl)cc1` [IPATASERTIB], for which the IC50 in assay [6] stood at 1400 nM. As for `C=CCN(/C=C1/C(=O)O[C@H](COC)[C@@]2(C)C1=C(O)C(=O)C1=C2[C@H](OC(C)=O)C[C@]2(C)C(=O)CC[C@@H]12)CC=C` [SONOLISIB], the results for the half-maximal inhibitory concentration (IC50) in assay [7], in assay [8] and in assay [6] were 2.9 nM, 1 nM and 0.1 nM, respectively. `Cc1nc(-c2cn3c(n2)-c2ccc(-c4cnn(C(C)(C)C(N)=O)c4)cc2OCC3)n(C(C)C)n1` [TASELISIB] returned an IC50 in assay [8] of 0.91 nM.
